In patent US8163699B2, “Method for the treatment of valvular disease” (Montreal Heart Institute, priority 2006, dated 2012):
Several values for one entry are separate records, joined by “and”; a condition that tells them apart may be missing. Equal values may be shown once.

What was measured:
Format in all cases: in vivo, New-Zealand White rabbits
[1] = system: aortic valve stenosis (AVS); assay: Echocardiography (aortic valve area, aortic valve thickness) in rabbit model of aortic valve stenosis; settings: for Aortic valve area (AVA): 25 mg/kg i.v. 3 times per week; for Aortic valve thickness: treated rabbits
Text: A complex animal model of aortic valve stenosis has been developed in rabbits.
An animal model adapted from that described by Drolet et al. (12) was used. Fifteen male New-Zealand White rabbits (2.7-3.0 kg, aged 12-13 weeks) were fed with a 0.5% cholesterol-enriched diet (Harlan, Indianapolis, Ind.) plus vitamin D2 (50000 UI per day; Sigma, Markham, Canada) in the drinking water until significant AVS, as defined by a decrease ≧10% of aortic valve area (AVA) or of the transvalvular velocities ratio (V1/V2), could be detected by echocardiography (12.9±2.4 weeks).
(§1) The animals then returned to a standard diet (without vitamin D2) to mimic cholesterol lowering and were randomly assigned to receive either saline (control group, n=8) or the ApoA-1 mimetic peptide (treated group, n=7). Rabbits were given injections through the marginal ear vein of saline or of the ApoA-1 mimetic peptide (25 mg/kg) complexed with phospholipids (Compound A), 3 times per week for 2 weeks. Echocardiograms were performed serially (see Echocardiography Methods) every 3 to 4 days throughout the randomized treatment period. Two days after their last infusion, the animals underwent a final echocardiogram and were sacrificed, and the aortic valves were harvested for histological analyses. Blood samples were obtained through the ear artery at baseline, prior to treatment and before sacrifice. Total cholesterol, HDL cholesterol, triglycerides and calcium levels were measured with an automated filter photometer system (Dimension RxL Max, Dade Behring, Ill.).
Transthoracic echocardiographic studies were performed at baseline, on a weekly basis starting at 8 weeks of hypercholesterolemic diet until significant AVS developed, and then after 4, 7, 10 and 14 days of ApoA-1 mimetic peptide or saline control treatments. Studies were carried out with an S12 probe using a standard echocardiographic system (Sonos 5500, Philips Medical Imaging, MA). Intra-muscular injections of ketamine (45 mg/kg) and midazolam (0.75 mg/kg) were used for sedation.
Parasternal long and short-axis views of the aortic valve were recorded to assess leaflet morphology. Left ventricular outflow tract (LVOT) diameter was measured in a zoomed parasternal long-axis view, and LVOT cross-sectional area (CSALVOT) was calculated according to: CSALVOT=π(DLVOT/2)^2. LVOT velocity (V1) and velocity time integral (VTILVOT) were obtained with pulsed-wave Doppler sampled proximal to the aortic valve in the apical 5-chamber view. Continuous wave (CW) Doppler interrogation across the aortic valve was used to obtain transvalvular maximal velocity (V2) and VTI (VTIAO) in the same view. V1/V2 ratio was calculated in the pre-treatment period to determine AVS development. Aortic valve area (AVA) was obtained at each time point by the continuity equation: AVA=CSALVOT×(VTILVOT/[…]). Aortic valve thickness in its middle portion was measured at end-diastole in a zoomed parasternal long-axis view at baseline, before randomized therapy, and at the final echocardiographic exam.
The average of three consecutive cardiac cycles was used for each measurement. Special care was taken to obtain similar imaging planes on serial examinations by reviewing previous recordings before follow-up study. All echocardiographic imaging and measurements were performed throughout the protocol by the same experienced investigator blinded to randomized treatment assignment.
Data are presented as mean±standard deviation. For the “pre-treatment” period, repeated measures analysis of variance (ANOVA) models were used to study the echocardiographic and serum measurements across time and between groups (treated vs. control groups). Models with time, group and group×time interaction as independent variables were used and comparisons between groups at a given time point were undertaken only in the presence of a significant group×time interaction. Otherwise, global conclusions were drawn based on the main group effects of the model. […]

aortic valve lesions [2] = assay: Histomorphometry of aortic valves in rabbit model of aortic valve stenosis; settings: treated group; post mortem after 2 weeks of treatment
Text: An animal model adapted from that described by Drolet et al. (12) was used. Fifteen male New-Zealand White rabbits (2.7-3.0 kg, aged 12-13 weeks) were fed with a 0.5% cholesterol-enriched diet (Harlan, Indianapolis, Ind.) plus vitamin D2 (50000 UI per day; Sigma, Markham, Canada) in the drinking water until significant AVS, as defined by a decrease ≧10% of aortic valve area (AVA) or of the transvalvular velocities ratio (V1/V2), could be detected by echocardiography (12.9±2.4 weeks). The animals then returned to a standard diet (without vitamin D2) to mimic cholesterol lowering and were randomly assigned to receive either saline (control group, n=8) or the ApoA-1 mimetic peptide (treated group, n=7). Rabbits were given injections through the marginal ear vein of saline or of the ApoA-1 mimetic peptide (25 mg/kg) complexed with phospholipids (Compound A), 3 times per week for 2 weeks. Echocardiograms were performed serially (see Echocardiography Methods) every 3 to 4 days throughout the randomized treatment period. Two days after their last infusion, the animals underwent a final echocardiogram and were sacrificed, and the aortic valves were harvested for histological analyses. Blood samples were obtained through the ear artery at baseline, prior to treatment and before sacrifice. Total cholesterol, HDL cholesterol, triglycerides and calcium levels were measured with an automated filter photometer system (Dimension RxL Max, Dade Behring, Ill.). The ascending aorta and aortic valve were opened longitudinally and the 3 valvular cusps were separated. […] Stained or immunohistochemically labeled tissue sections obtained from the central third of each cusp were analyzed with a computer-based digitizing image system (Image Pro Plus, version 5.1) using a light microscope (BX41, Olympus) connected to a digital video camera (Qcolor3, Olympus). […] Lesion area (LA) and leaflet lesion length (LLL) were measured. […] Relationships between histomorphometry and echocardiographic variables were evaluated using Pearson correlation coefficient. […]

aortic valve lesions [3] = assay: Histochemistry of aortic valves (von Kossa, filipin, Sirius red, immunohistochemistry) in rabbit model of aortic valve stenosis
Text: An animal model adapted from that described by Drolet et al. (12) was used. Fifteen male New-Zealand White rabbits (2.7-3.0 kg, aged 12-13 weeks) were fed with a 0.5% cholesterol-enriched diet (Harlan, Indianapolis, Ind.) plus vitamin D2 (50000 UI per day; Sigma, Markham, Canada) in the drinking water until significant AVS, as defined by a decrease ≧10% of aortic valve area (AVA) or of the transvalvular velocities ratio (V1/V2), could be detected by echocardiography (12.9±2.4 weeks). The animals then returned to a standard diet (without vitamin D2) to mimic cholesterol lowering and were randomly assigned to receive either saline (control group, n=8) or the ApoA-1 mimetic peptide (treated group, n=7). Rabbits were given injections through the marginal ear vein of saline or of the ApoA-1 mimetic peptide (25 mg/kg) complexed with phospholipids (Compound A), 3 times per week for 2 weeks. Echocardiograms were performed serially (see Echocardiography Methods) every 3 to 4 days throughout the randomized treatment period. Two days after their last infusion, the animals underwent a final echocardiogram and were sacrificed, and the aortic valves were harvested for histological analyses. Blood samples were obtained through the ear artery at baseline, prior to treatment and before sacrifice. Total cholesterol, HDL cholesterol, triglycerides and calcium levels were measured with an automated filter photometer system (Dimension RxL Max, Dade Behring, Ill.). Hematoxylin-phloxin-safran, von Kossa and Sirius red (F3B, BDH, UK) stained sections were prepared for routine examination, tissue calcification and collagen studies respectively. Collagen fibers types I and III were quantified as previously described (13), on Sirius red picric acid stained sections under polarized light. For immunohistochemistry evaluation, all sections were preincubated with either mouse IgG2a monoclonal antibody against rabbit macrophage (RAM11, Dako, Canada) (1:100 dilution) or rabbit smooth muscle cell α-actin (Clone 1A4, Dako, Canada) (1:200 dilution). Species-appropriate biotinylated secondary antibodies were applied, followed by streptavidin horseradish peroxidase complex, visualized with azoethylcarbazol (AEC) and counterstained by Mayer's hematoxylin. Smooth muscle cells, macrophages and calcification areas were quantified in the ROA on digital images acquired at 40× magnification. Images from each section were digitally captured with the same illumination settings, and automatic computer-based analysis was performed with the same color threshold for all specimens. Data were expressed as percent labelled area in ROA. For assessment of tissue free cholesterol, 5 μm cryosections fixed in 4% paraformaldehyde in PBS (pH 7.4) were stained with filipin (13). Sections were incubated for 1 hour at room temperature in filipin complex (Sigma, Canada) dissolved in DMSO and diluted in PBS, mounted in Vectashield (Vector Laboratories, USA) and viewed by fluorescence microscopy using a Zeiss Axiovert 200M microscope with the DAPI filter set. Images were acquired with an AxioCam MRm digital camera mounted with a 0.63× C-mount adapter. Filipin data were expressed as arbitrary units of fluorescence intensity. Data are presented as mean±standard deviation. For the “pre-treatment” period, repeated measures analysis of variance (ANOVA) models were used to study the echocardiographic and serum measurements across time and between groups (treated vs. control groups). Models with time, group and group×time interaction as independent variables were used and comparisons between groups at a given time point were undertaken only in the presence of a significant group×time interaction. Otherwise, global conclusions were drawn based on the main group effects of the model. […]

[4] = Serum lipids and calcemia in rabbit model of aortic valve stenosis; settings: for HDL-cholesterol / total cholesterol levels: treated group
Method: as §1
Data are presented as mean±standard deviation. For the “pre-treatment” period, repeated measures analysis of variance (ANOVA) models were used to study the echocardiographic and serum measurements across time and between groups (treated vs. control groups). Models with time, group and group×time interaction as independent variables were used and comparisons between groups at a given time point were undertaken only in the presence of a significant group×time interaction. Otherwise, global conclusions were drawn based on the main group effects of the model. For the randomized treatment period, repeated measures analysis of covariance (ANCOVA) models were used to study the echocardiographic and serum measurements across time and between groups (treated vs. control groups), adjusted for the baseline value of the response variable. The group×time interaction was also included in the ANCOVA models and comparisons between groups at a given time point were undertaken only in the presence of a significant group×time interaction. Otherwise, global conclusions were drawn based on the main group effects of the model. Histological variables were compared between treated and control groups using Student t-test. Relationships between histomorphometry and echocardiographic variables were evaluated using Pearson correlation coefficient. All analyses were performed with SAS release 8.2 (SAS Institute Inc., Cary, N.C.) and conducted at the 0.05 significance level.

[5] = treated group, after 7 days of treatment
[6] = treated group, after 10 days of treatment
[7] = treated group, after 14 days of treatment
[8] = treated rabbits, Sirius red, polarized light
[9] = at the time of randomization (pre-treatment value)

H-Pro-Val-Leu-Asp-Leu-Phe-Arg-Glu-Leu-Leu-Asn-Glu-Leu-Leu-Glu-Ala-Leu-Lys-Gln-Lys-Leu-Lys-OH (H-PVLDLFRELLNELLEALKQKLK-OH; not fully specified) [ApoA-1 mimetic peptide, ApoA-1 mimetic peptide complexed with phospholipids, mimicking nascent HDL]
Aortic valve area (AVA) [1, 5]: 21.9±3.6 mm^2
Aortic valve area (AVA) [1, 6]: 23.0±4.1 mm^2
Aortic valve area (AVA) [1, 7]: 23.8±3.1 mm^2
relative increase of AVA [1, 5]: 14.2±3.5% and 14.2%
relative increase of AVA [1, 6]: 19.8±3.5% and 19.8%
relative increase of AVA [1, 7]: 24.6±2.0% and 24% and 24.6%
decrease of aortic valve thickness ([1]; treated group, within 14 days of treatment): 21%
Aortic valve thickness ([1]; at end of treatment (14 days)): 0.075±0.033 cm
Aortic valve thickness ([1]; before randomization (pre-treatment value)): 0.094±0.034 cm
% LLL (percentage of total leaflet length occupied by lesion) (aortic valve lesions [2]): 55.7±24.3%
Lesion extent at the base of valve leaflets and sinuses of Valsalva (aortic valve lesions [2]): 52.8±12.5%
percentage of lesion area (LA) per region of analysis (ROA) (aortic valve lesions [2]): 52.8±12.5 %/ROA
decrease in free cholesterol compared to controls (aortic valve lesions [3]; treated animals vs. controls, first 10 μm at luminal edge of lesions, not statistically significant, P=0.231): 41%
free cholesterol (filipin fluorescent signal) (aortic valve lesions [3]; treated animals, within the first 10 μm at the luminal edge of lesions): 221±54 arbitrary units of fluorescence intensity
percentage of rabbits with calcium deposits in the lesion core in the sinuses of Valsalva (aortic valve lesions [3]; treated group): 57%
decrease of calcification area compared to controls (aortic valve lesions [3]; treated group vs. controls, von Kossa staining, strong trend, P=0.063): 77%
percentage of the sinus of Valsalva area occupied by calcifications (aortic valve lesions [3]; treated group, von Kossa staining): 1.6±2.0%
percentage of collagen type I fibers in the ROA (aortic valve lesions [3]; [8]): 5.5±5.6 %/ROA
percentage of collagen type III fibers in the ROA (aortic valve lesions [3]; [8]): 19.1±11.3 %/ROA
macrophage areas (aortic valve lesions [3]; treated vs. control group, RAM11 immunohistochemistry): no significant differences between groups
α-actin positive areas (aortic valve lesions [3]; treated vs. control group, smooth muscle cell α-actin immunohistochemistry): no significant differences between groups
HDL-cholesterol ([4]; at end of treatment): 0.45 ± 0.17 mmol/L
total cholesterol levels ([4]; at end of treatment): 17.57 ± 10.32 mmol/L
HDL-cholesterol [4, 9]: 0.50 ± 0.15 mmol/L
total cholesterol levels [4, 9]: 20.13 ± 5.18 mmol/L
triglyceride levels ([4]; treated vs. control group during treatment period, P=0.544): similar
